Reference: patent US11331290B2, “Niclosamide for the treatment of cancer metastasis” (Max-Delbrück-Centrum für Molekulare Medizin in der …, priority 2011, dated 2022)

Columns and labels:
Format in all cases: cell-based, human
HCT116-S100A4 cells = experiment: Soft agar colony formation assay; conditions: 1 μM, 7 days
Method: (§1) Analysis of anchorage-independent cell proliferation was achieved by soft agar colony formation assay. A bottom layer containing 0.5% w/v agarose, RPMI-1640 medium, 10% FBS and 1 μM niclosamide or the respective amount of DMSO was added to a 6 cm Ø dish and incubated at room temperature under sterile conditions for 10 minutes. Onto the solidified bottom layer a top layer was added containing 8×10^3 cells, 0.33% w/v agarose, RPMI-1640 medium, 10% FBS and 1 μM niclosamide or the respective amount of DMSO. Cells were seeded as single cells into the soft agar and incubated in a humidified incubator at 37° C. and 5% CO2 for 7 days. Colony formation was visualized by 10× magnification for an overview and 40× magnification for single colonies in the Leica DM IL light microscope (Leica Microsystems). Colony quantification was achieved by counting cell colonies of more than 4 cells in 10 squares of […]. Colony formation experiments were repeated twice, each in triplicates.
(§2) (A) Cell migration of HCT116-vector and HCT116-S100A4 cells exposed to niclosamide treatment. Cells were treated with 1 μM niclosamide for 24 hours and migration rates were measured with Boyden chamber assay. (B) Cell invasion of HCT116-vector and HCT116-S100A4 cells exposed to niclosamide treatment. Cells were treated with 1 μM niclosamide for 24 hours and cell invasion was determined by Boyden chamber assay. (C) Directed migration of HCT116-vector and HCT116-S100A4 cells exposed to niclosamide treatment analyzed by wound healing assay. Wounds of 300 μM width were set in a 60% confluent monolayer of HCT116-vector or HCT116-S100A4 cells on day 1. Cells were treated daily with 1 μM niclosamide for 4 days. Microphotographs of day 4 are presented here with black lines indicating margins of entered wound of day 1; scale bar represents 200 μM. Data represents three independent experiments. (D) Adhesive cell proliferation of HCT116-vector and HCT116-S100A4 cells exposed to niclosamide treatment. Cells were treated daily with 1 μM niclosamide and cell viability was determined with MTT assay. (E) Anchorage-independent cell growth of HCT116-vector and HCT116-S100A4 cells exposed to niclosamide treatment. Cells were plated as single cells into 0.33% (w/v) agarose and treatment (solvent or 1 μM niclosamide) containing medium. After 7 days colonies were visualized by light microscopy at 10× (overview) and 40× (single colony) magnification. (F) Quantification of colonies formed. Number of colonies (of more than 4 cells) was counted and normalized to solvent-treated HCT116-vector cells. Differences of niclosamide vs. solvent-treated cells were analyzed by Student's t test. Data represent mean±SE (n>2) of at least two independent experiments each performed in at least duplicate.

HCT116-vector cells = experiment: Soft agar colony formation assay; conditions: 1 μM, 7 days
Method: as §1, §2

S100A4 protein = S100A4 protein expression by immunoblot; conditions: for S100A4 protein expression: 1 μM
Method: For total protein extraction cells were lysed with RIPA buffer (50 mM Tris-HCl, 150 mM NaCl, 1% Nonidet P-40, supplemented with complete protease inhibitor tablets; Roche) for 30 minutes on ice. For isolation of the nuclear protein fraction, the NE-PER Nuclear and Cytoplasmic Extraction Kit (Pierce) was used according to the manufacturer's instructions. Protein concentration was quantified with Bicinchoninic Acid (BCA) Protein Assay Reagent (Pierce) according to manufacturer's instructions and lysates of equal protein concentration were separated with SDS-PAGE and transferred to Hybond C Extra nitrocellulose membrane (Amersham Biosciences). Membranes were incubated in blocking solution containing 5% nonfat dry milk and 1% bovine serum albumin (BSA) for 1 hour at room temperature. Membranes were incubated overnight at 4° C. with rabbit anti-human-S100A4 antibody (dilution, 1:1500), mouse anti-human-CTNNB1 antibody (dilution, 1:1000), mouse anti-human TUBB1 antibody (dilution, 1:1000), goat anti-human GAPDH antibody (dilution, 1:500) or mouse anti-human PCNA antibody (dilution, 1:1000) followed by incubation for 1 hour at room temperature with HRP-conjugated anti-goat (dilution, 1:10000), anti-rabbit (dilution, 1:10000), anti-mouse IgG (dilution, 1:10000) or anti-mouse IgM (dilution, 1:10000) antibody. Antibody-protein-complexes were visualized with electrochemical-luminescence (ECL) reagent (100 mM Tris-HCl, 0.025% w/v luminol, 0.011% w/v para-hydroxycoumaric acid, 10% v/v dimethylsulfoxide, 0.004% v/v H2O2, pH 8.6) and subsequent exposure to CL-XPosure™ Films (Pierce) for 1 second to 20 minutes. Immunoblotting for GAPDH and PCNA served as protein loading control. Immunoblotting for β-tubulin was used to control that nuclear extracts were free from cytoplasmatic protein. All experiments were performed at least three independent times.
(A) Determination of the cytotoxicity of niclosamide on HCT116 cells. Cells were treated with increasing concentrations of niclosamide for 24 hours and cell viability was measured. (B) Effect of increasing concentrations of niclosamide on S100A4 expression. HCT116 cells were treated with increasing concentrations of niclosamide for 24 hours. S100A4 expression was determined by quantitative reverse-transcription-polymerase chain reaction (qRT-PCR) and immunoblot. (C) Time-dependency of niclosamide effect on S100A4 expression. HCT116 cells were treated with a single dose of 1 μM niclosamide for 24 hours and S100A4 expression was analyzed by qRT-PCR and immunoblot at indicated time points. Black bar indicates the chosen treatment conditions for further experiments. (D) Effect of daily doses of niclosamide on S100A4 expression. HCT116 cells were treated daily with 1 μM niclosamide and S100A4 expression was analyzed by qRT-PCR and immunoblot. Data is given as mean±SD (n>2). Differences in treated groups were compared with the control group by two-sided one-way analysis of variances and Bonferroni post hoc multiple comparison test.
(E) Effect of niclosamide in HCT116-vector and HCT116-S100A4 cells. HCT116-vector and HCT116-S100A4 cells were treated with 1 μM niclosamide for 24 hours and S100A4 expression was analyzed by qRT-PCR and immunoblot. Data is given as mean±SD (n>2). Comparison of niclosamide vs. solvent-treated cells was analyzed with Student's t test.
(A) S100A4 expression under niclosamide treatment. Cells were treated with 1 μM niclosamide for 24 hours. S100A4 expression was analyzed with qRT-PCR and immunoblot. (B) Cell migration under niclosamide treatment. Migration rates of cells treated with 1 μM niclosamide for 24 hours were determined in a Boyden chamber assay values were normalized to solvent-treated SW620 cells. (C) Cell invasion under niclosamide treatment. Cells were seeded onto Matrigel covered transwells and treated with 1 μM niclosamide for 24 hours. Invaded cells in the lower chamber were counted and normalized to solvent-treated SW620 cells. […]

Question: With O=C(Nc1ccc([N+](=O)[O-])cc1Cl)c1cc(Cl)ccc1O [niclosamide, 2′,5-dichloro-4′-nitrosalicylanilide] as the compound, how does the colony size (HCT116-S100A4 cells) read?
Answer: clearly reduced

Question: And the “number of colonies, mean difference control vs niclosamide” value (HCT116-S100A4 cells)?
Answer: 100.7%

Question: And the “number of colonies, mean % of solvent-treated HCT116-vector cells” value (HCT116-S100A4 cells; solvent control 105.8%)?
Answer: 5.0%

Question: What about the colony size (HCT116-vector cells) of the same compound?
Answer: clearly reduced

Question: And the “number of colonies, mean % of solvent-treated HCT116-vector cells” value (HCT116-vector cells)?
Answer: 6.8%

Question: And the “number of colonies, mean difference control vs niclosamide” value (HCT116-vector cells)?
Answer: 93.2%

Question: And the S100A4 protein expression (S100A4 protein; DLD-1 cells, 24 h (solvent and niclosamide-treated))?
Answer: no S100A4 protein was detected

Question: And the S100A4 protein level (S100A4 protein; HCT116, 0.1 μM to 2.5 μM, 24 h)?
Answer: reduced in a concentration-dependent manner

Question: And the “S100A4 protein level, % of solvent-treated control cells” value (S100A4 protein; HCT116, 1 μM daily)?
Answer: approximately 50%

Question: What about the S100A4 protein (S100A4 protein; HCT116, three days following discontinuation of niclosamide treatment) of the same compound?
Answer: clearly reduced

Question: And the S100A4 protein level (S100A4 protein; HCT116-S100A4, 1 μM, 24 h)?
Answer: no reduction

Question: And the activity at 1 µM (S100A4 protein; Homo sapiens, HCT-116, HCT116, 1 μM, single dose, 24 hours, read-out: S100A4 protein level, % of control)?
Answer: < 50%

Question: And the S100A4 protein expression (S100A4 protein; SW620, LS174T and SW480 cells, 24 h)?
Answer: reduced
